Our source for the Km values is publication PMC4602143, “A combined bioinformatics and functional metagenomics approach to discovering lipolytic biocatalysts” (Frontiers in Microbiology, 2015).

The experiment has as its system T1, PL-GOS.
T1 construct: synthetic gene; N-terminal His6 with TEV site, tag cut by TEV protease; E. coli BL21(DE3) strain TMBL1503, pET-11a
As to the kind of experiment: pNP release, OD405, Lineweaver-Burk. The class given is biochemical, metagenome: ocean surface water (Global Ocean Sampling). The note with it: 50 mM Tris-HCl pH 7.3, 20°C, 65 nM enzyme. An excerpt: pNP release, OD405, Lineweaver-Burk on PL-GOS

SMILES strings stand for the structures. Like-named read-outs stand apart in the source and are kept apart here.

Consider `CCCCCCCCCCCCCCCC(=O)Oc1ccc([N+](=O)[O-])cc1` [pNP-palmitate], for which the Km (substrate above 20 μM (non-Michaelis-Menten below), read-out: pNP-palmitate) worked out at 68.1 µM.

Consider `CCCC(=O)Oc1ccc([N+](=O)[O-])cc1` [pNP-butyrate], for which, where the note is “read-out: pNP-butyrate”, the Km was found to be 66.7 µM.
